Legend:
Assay in all cases: relative viability (nuclei count vs DMSO), 5 days (fraction); higher = more cells survive
[1] = compound: CC1=C(C=CC(=C1)[N+](=O)[O-])NS(=O)(=O)C2=C(C=CC(=C2)Cl)Cl [FH535]
Summary of the method: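 Cells of lung cancer lines were placed in 1536-well plates and kept overnight at 37 °C. Pinning then delivered five library-drug doses (not always all listed), spaced by √10, onto plates anchored with vehicle, and the cells were left 5 days without changing medium. One step fixed, permeabilised and stained them with Hoechst, and MetaXpress counted nuclei in 4× images. Viability, as a median over plates, is treated-well nuclei divided by vehicle-well nuclei, with acceptance only at control CV below 25% and at least one doubling.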

[2] = compound: CC1=C(C=CC(=C1)[N+](=O)[O-])NS(=O)(=O)C2=C(C=CC(=C2)Cl)Cl [FH535] + Cc1nc(Nc2ncc(C(=O)Nc3c(C)cccc3Cl)s2)cc(N2CCN(CCO)CC2)n1 [Dasatinib] (partner 0.075 µM)
Summary of the method: (§1)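 Lung cancer cell lines, seeded in 1536-well plates, were treated the following day by pin tool with a single drug or with five library-drug doses (not always all listed) in √10 steps on top of a fixed anchor-drug dose. Cells were fixed and nuclei stained in one step after 5 days, and nuclei were counted. Relative viability is the nuclei count for treated wells divided by that for vehicle wells, reported as medians of duplicate plates.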

[3] = compound: CC1=C(C=CC(=C1)[N+](=O)[O-])NS(=O)(=O)C2=C(C=CC(=C2)Cl)Cl [FH535] + Nc1nc2[nH]cc(CCc3ccc(C(=O)N[C@@H](CCC(=O)O)C(=O)O)cc3)c2c(=O)[nH]1 [Pemetrexed] (partner 0.2 µM)
Summary of the method: as §1

[4] = compound: CC1=C(C=CC(=C1)[N+](=O)[O-])NS(=O)(=O)C2=C(C=CC(=C2)Cl)Cl [FH535] + COc1cccc2cc(-c3nc([C@H]4CC[C@H](C(=O)O)CC4)n4ncnc(N)c34)[nH]c12 [OSI-027] (partner 0.5 µM)
Summary of the method: as §1

[5] = compound: CC1=C(C=CC(=C1)[N+](=O)[O-])NS(=O)(=O)C2=C(C=CC(=C2)Cl)Cl [FH535] + O=C(CCCCCCC(=O)Nc1ccccc1)NO [Vorinostat] (partner 1 µM)
Summary of the method: as §1

[6] = compound: CC1=C(C=CC(=C1)[N+](=O)[O-])NS(=O)(=O)C2=C(C=CC(=C2)Cl)Cl [FH535] + N=C(N)NC(=N)NCCc1ccccc1 [Phenformin] (partner 250 µM)
Summary of the method: as §1

[7] = compound: CC1=C(C=CC(=C1)[N+](=O)[O-])NS(=O)(=O)C2=C(C=CC(=C2)Cl)Cl [FH535] + NC(=O)Nc1cc(-c2cccc(F)c2)sc1C(=O)N[C@H]1CCCNC1 [AZD7762] (partner 0.2 µM)
Summary of the method: as §1

[8] = compound: CC1=C(C=CC(=C1)[N+](=O)[O-])NS(=O)(=O)C2=C(C=CC(=C2)Cl)Cl [FH535] + CC(=O)Nc1cccc(-n2c(=O)n(C3CC3)c(=O)c3c(Nc4ccc(I)cc4F)n(C)c(=O)c(C)c32)c1 [Trametinib] (partner 0.02 µM)
Summary of the method: as §1

[9] = compound: CC1=C(C=CC(=C1)[N+](=O)[O-])NS(=O)(=O)C2=C(C=CC(=C2)Cl)Cl [FH535] + COc1cc2c(Oc3ccc(NC(=O)C4(C(=O)Nc5ccc(F)cc5)CC4)cc3F)ccnc2cc1OCCCN1CCOCC1 [Foretinib] (partner 0.25 µM)
Summary of the method: as §1

[10] = compound: CC1=C(C=CC(=C1)[N+](=O)[O-])NS(=O)(=O)C2=C(C=CC(=C2)Cl)Cl [FH535] + Nc1ncn([C@H]2C[C@H](O)[C@@H](CO)O2)c(=O)n1 [Decitabine] (partner 2 µM)
Summary of the method: as §1

[11] = compound: CC1=C(C=CC(=C1)[N+](=O)[O-])NS(=O)(=O)C2=C(C=CC(=C2)Cl)Cl [FH535] + CC(=O)c1c(C)c2cnc(Nc3ccc(N4CCNCC4)cn3)nc2n(C2CCCC2)c1=O [Palbociclib] (partner 0.5 µM)
Summary of the method: as §1

[12] = compound: CC1=C(C=CC(=C1)[N+](=O)[O-])NS(=O)(=O)C2=C(C=CC(=C2)Cl)Cl [FH535] + Cc1cc(Nc2cc(N3CCN(C)CC3)nc(Sc3ccc(NC(=O)C4CC4)cc3)n2)n[nH]1 [Tozasertib] (partner 0.1 µM)
Summary of the method: as §1

[13] = compound: CC1=C(C=CC(=C1)[N+](=O)[O-])NS(=O)(=O)C2=C(C=CC(=C2)Cl)Cl [FH535] + O=C(c1cc(Cc2n[nH]c(=O)c3ccccc23)ccc1F)N1CCN(C(=O)C2CC2)CC1 [Olaparib] (partner 8 µM)
Summary of the method: as §1

[14] = compound: CC1=C(C=CC(=C1)[N+](=O)[O-])NS(=O)(=O)C2=C(C=CC(=C2)Cl)Cl [FH535] + CCNC(=O)c1noc(-c2cc(C(C)C)c(O)cc2O)c1-c1ccc(CN2CCOCC2)cc1 [Luminespib] (partner 0.01 µM)
Summary of the method: as §1

Cell Line SW 900 has a relative viability ([1]; 0.04 µM) of 0.962, a relative viability ([1]; 0.1265 µM) of 0.754 and a relative viability ([1]; 0.4 µM) of 0.789. The relative viability ([1]; 1.265 µM) was 0.743, the relative viability ([2]; first compound 0.04 µM) was 0.481 and the relative viability ([2]; first compound 0.1265 µM) was 0.748. It also gave a relative viability ([2]; first compound 0.4 µM) of 0.507, a relative viability ([2]; first compound 1.265 µM) of 0.63 and a relative viability ([3]; first compound 0.04 µM) of 0.441. The relative viability ([3]; first compound 0.1265 µM) was 0.479, the relative viability ([3]; first compound 0.4 µM) was 0.501 and the relative viability ([3]; first compound 1.265 µM) was 0.472. For the same cell line, the relative viability ([4]; first compound 0.04 µM) was 0.531, the relative viability ([4]; first compound 0.1265 µM) was 0.582 and the relative viability ([4]; first compound 0.4 µM) was 0.505. It also gave a relative viability ([4]; first compound 1.265 µM) of 0.333, a relative viability ([5]; first compound 0.04 µM) of 0.483 and a relative viability ([5]; first compound 0.1265 µM) of 0.257. The relative viability ([5]; first compound 0.4 µM) was 0.378, the relative viability ([5]; first compound 1.265 µM) was 0.358 and the relative viability ([6]; first compound 0.04 µM) was 0.569. It also gave a relative viability ([6]; first compound 0.1265 µM) of 0.667, a relative viability ([6]; first compound 0.4 µM) of 0.48 and a relative viability ([6]; first compound 1.265 µM) of 0.236. For the same cell line, the relative viability ([7]; first compound 0.04 µM) was 0.42, the relative viability ([7]; first compound 0.1265 µM) was 0.599 and the relative viability ([7]; first compound 0.4 µM) was 0.403. The relative viability ([7]; first compound 1.265 µM) was 0.542, the relative viability ([8]; first compound 0.04 µM) was 0.839 and the relative viability ([8]; first compound 0.1265 µM) was 1.09. It also gave a relative viability ([8]; first compound 0.4 µM) of 0.853, a relative viability ([8]; first compound 1.265 µM) of 0.75 and a relative viability ([9]; first compound 0.04 µM) of 0.745. It also gave a relative viability ([9]; first compound 0.1265 µM) of 0.94, a relative viability ([9]; first compound 0.4 µM) of 0.764 and a relative viability ([9]; first compound 1.265 µM) of 0.541. The relative viability ([10]; first compound 0.04 µM) was 0.443, the relative viability ([10]; first compound 0.1265 µM) was 0.547 and the relative viability ([10]; first compound 0.4 µM) was 0.418. For the same cell line, the relative viability ([10]; first compound 1.265 µM) was 0.418, the relative viability ([11]; first compound 0.04 µM) was 0.516 and the relative viability ([11]; first compound 0.1265 µM) was 0.503. The relative viability ([11]; first compound 0.4 µM) was 0.507, the relative viability ([11]; first compound 1.265 µM) was 0.454 and the relative viability ([12]; first compound 0.04 µM) was 0.535. For the same cell line, the relative viability ([12]; first compound 0.1265 µM) was 0.525, the relative viability ([12]; first compound 0.4 µM) was 0.536 and the relative viability ([12]; first compound 1.265 µM) was 0.484. The relative viability ([13]; first compound 0.04 µM) was 0.923, the relative viability ([13]; first compound 0.1265 µM) was 0.838 and the relative viability ([13]; first compound 0.4 µM) was 0.804. The relative viability ([13]; first compound 1.265 µM) was 0.657, the relative viability ([14]; first compound 0.04 µM) was 0.186 and the relative viability ([14]; first compound 0.1265 µM) was 0.163. It also gave a relative viability ([14]; first compound 0.4 µM) of 0.161 and a relative viability ([14]; first compound 1.265 µM) of 0.178.

From the supplement of paper PMC10307832
